Assays:
Assay type in all cases: biochemical
VEGFR1 = target: T1, VEGFR1 (Homo sapiens, UniProt P17948); assay: recombinant kinase assay (ProQinase) at single […] concentration
T1 construct: gene FLT1

PKD2 = target: T2, PKD2 (Homo sapiens, UniProt Q9BZL6); assay: kinase selectivity study (SignalChem) at single […] concentration
T2 construct: gene PRKD2
T2 sequence (Q9BZL6 1-878): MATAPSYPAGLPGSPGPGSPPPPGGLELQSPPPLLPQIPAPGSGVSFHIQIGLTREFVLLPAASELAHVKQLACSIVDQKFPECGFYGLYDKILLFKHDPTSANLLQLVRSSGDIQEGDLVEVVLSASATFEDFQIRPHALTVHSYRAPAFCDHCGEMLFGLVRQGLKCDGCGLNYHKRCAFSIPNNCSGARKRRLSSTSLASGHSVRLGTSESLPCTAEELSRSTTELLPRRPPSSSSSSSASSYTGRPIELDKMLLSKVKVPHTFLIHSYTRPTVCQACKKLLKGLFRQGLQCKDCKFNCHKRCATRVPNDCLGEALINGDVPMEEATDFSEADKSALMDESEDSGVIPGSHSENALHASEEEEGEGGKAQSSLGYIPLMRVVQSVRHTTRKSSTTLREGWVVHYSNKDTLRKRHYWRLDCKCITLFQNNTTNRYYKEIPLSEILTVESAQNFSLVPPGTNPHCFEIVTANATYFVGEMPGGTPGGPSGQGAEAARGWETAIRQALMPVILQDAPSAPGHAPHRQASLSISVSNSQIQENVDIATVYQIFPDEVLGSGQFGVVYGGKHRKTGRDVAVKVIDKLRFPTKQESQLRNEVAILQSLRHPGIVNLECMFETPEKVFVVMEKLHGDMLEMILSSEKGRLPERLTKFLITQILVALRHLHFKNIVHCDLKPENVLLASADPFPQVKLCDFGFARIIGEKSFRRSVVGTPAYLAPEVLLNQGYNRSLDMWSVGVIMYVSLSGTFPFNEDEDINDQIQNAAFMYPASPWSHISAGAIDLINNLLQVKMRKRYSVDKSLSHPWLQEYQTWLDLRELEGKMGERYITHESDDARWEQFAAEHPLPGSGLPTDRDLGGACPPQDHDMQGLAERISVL

PKD1 = target: T3, PKD1 (Homo sapiens, UniProt Q15139); assay: recombinant kinase assay (IMAP fluorescence polarization, TAMRA-peptide)
T3 construct: gene PRKD1
T3 sequence (Q15139 1-912): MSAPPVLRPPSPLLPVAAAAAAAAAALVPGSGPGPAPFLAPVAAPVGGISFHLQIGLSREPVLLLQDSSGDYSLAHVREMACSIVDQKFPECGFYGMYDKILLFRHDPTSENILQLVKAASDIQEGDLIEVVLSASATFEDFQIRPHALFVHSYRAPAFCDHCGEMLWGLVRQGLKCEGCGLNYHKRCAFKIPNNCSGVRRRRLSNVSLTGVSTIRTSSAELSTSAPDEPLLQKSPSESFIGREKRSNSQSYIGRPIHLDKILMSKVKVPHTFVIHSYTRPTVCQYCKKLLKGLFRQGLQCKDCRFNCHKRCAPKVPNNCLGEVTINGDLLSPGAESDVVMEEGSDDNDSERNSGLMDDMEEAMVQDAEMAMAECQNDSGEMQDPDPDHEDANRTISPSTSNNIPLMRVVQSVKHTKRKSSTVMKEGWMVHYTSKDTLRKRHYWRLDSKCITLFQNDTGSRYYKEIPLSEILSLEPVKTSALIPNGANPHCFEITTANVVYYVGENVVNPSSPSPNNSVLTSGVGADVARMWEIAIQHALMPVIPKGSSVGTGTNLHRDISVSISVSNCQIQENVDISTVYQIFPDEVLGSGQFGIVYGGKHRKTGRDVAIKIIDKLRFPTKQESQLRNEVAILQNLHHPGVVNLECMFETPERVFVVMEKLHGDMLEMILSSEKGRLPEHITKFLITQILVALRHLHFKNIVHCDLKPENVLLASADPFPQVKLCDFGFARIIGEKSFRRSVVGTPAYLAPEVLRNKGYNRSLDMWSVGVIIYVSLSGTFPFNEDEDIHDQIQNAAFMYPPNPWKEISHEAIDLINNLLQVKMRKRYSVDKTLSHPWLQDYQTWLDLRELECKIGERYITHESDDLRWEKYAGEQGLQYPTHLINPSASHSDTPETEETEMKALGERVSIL

VEGFR3 = target: T4, VEGFR3 (Homo sapiens, UniProt P35916); assay: recombinant kinase assay (ProQinase) at single […] concentration
T4 construct: gene FLT4

VEGFR2 = target: T5, VEGFR2 (Homo sapiens, UniProt P35968); assay: recombinant kinase assay (Transcreener ADP detection)
T5 construct: gene KDR
T5 sequence (P35968 20-1356): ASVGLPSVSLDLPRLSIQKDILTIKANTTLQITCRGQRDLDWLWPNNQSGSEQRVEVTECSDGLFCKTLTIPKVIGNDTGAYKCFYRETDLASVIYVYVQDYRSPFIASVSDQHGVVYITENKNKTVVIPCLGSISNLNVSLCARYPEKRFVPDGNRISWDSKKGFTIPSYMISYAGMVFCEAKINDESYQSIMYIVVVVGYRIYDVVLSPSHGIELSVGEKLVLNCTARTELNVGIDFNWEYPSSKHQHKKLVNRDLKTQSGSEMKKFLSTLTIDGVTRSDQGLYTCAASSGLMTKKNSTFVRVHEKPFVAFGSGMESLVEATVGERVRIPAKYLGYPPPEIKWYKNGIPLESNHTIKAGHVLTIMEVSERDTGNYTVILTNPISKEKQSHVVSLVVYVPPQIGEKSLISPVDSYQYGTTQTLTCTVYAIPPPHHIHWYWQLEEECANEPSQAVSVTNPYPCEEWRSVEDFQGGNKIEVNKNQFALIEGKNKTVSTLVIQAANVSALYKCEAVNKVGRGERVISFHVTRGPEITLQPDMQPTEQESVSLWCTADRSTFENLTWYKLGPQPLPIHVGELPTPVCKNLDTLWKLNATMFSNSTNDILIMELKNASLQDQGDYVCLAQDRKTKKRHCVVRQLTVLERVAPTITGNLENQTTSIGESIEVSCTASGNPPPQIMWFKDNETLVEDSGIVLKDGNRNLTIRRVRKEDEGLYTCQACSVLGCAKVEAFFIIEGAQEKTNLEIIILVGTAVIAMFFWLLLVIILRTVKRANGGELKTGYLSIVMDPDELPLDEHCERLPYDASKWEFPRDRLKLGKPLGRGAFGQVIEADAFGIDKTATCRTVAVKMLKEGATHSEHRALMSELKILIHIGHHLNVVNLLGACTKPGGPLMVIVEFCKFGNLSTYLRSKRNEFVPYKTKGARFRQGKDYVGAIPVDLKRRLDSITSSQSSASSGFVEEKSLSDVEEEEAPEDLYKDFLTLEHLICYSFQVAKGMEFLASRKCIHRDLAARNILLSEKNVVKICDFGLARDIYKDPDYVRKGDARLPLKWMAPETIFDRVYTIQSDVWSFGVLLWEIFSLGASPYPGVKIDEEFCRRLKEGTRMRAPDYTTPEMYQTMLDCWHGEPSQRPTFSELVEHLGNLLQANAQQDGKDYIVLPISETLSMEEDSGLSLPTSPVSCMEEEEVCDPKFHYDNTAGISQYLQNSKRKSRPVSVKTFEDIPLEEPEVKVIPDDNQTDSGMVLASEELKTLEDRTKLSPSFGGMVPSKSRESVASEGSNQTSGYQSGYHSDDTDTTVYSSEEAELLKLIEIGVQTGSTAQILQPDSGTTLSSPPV

T4 sequence (P35916 25-1363): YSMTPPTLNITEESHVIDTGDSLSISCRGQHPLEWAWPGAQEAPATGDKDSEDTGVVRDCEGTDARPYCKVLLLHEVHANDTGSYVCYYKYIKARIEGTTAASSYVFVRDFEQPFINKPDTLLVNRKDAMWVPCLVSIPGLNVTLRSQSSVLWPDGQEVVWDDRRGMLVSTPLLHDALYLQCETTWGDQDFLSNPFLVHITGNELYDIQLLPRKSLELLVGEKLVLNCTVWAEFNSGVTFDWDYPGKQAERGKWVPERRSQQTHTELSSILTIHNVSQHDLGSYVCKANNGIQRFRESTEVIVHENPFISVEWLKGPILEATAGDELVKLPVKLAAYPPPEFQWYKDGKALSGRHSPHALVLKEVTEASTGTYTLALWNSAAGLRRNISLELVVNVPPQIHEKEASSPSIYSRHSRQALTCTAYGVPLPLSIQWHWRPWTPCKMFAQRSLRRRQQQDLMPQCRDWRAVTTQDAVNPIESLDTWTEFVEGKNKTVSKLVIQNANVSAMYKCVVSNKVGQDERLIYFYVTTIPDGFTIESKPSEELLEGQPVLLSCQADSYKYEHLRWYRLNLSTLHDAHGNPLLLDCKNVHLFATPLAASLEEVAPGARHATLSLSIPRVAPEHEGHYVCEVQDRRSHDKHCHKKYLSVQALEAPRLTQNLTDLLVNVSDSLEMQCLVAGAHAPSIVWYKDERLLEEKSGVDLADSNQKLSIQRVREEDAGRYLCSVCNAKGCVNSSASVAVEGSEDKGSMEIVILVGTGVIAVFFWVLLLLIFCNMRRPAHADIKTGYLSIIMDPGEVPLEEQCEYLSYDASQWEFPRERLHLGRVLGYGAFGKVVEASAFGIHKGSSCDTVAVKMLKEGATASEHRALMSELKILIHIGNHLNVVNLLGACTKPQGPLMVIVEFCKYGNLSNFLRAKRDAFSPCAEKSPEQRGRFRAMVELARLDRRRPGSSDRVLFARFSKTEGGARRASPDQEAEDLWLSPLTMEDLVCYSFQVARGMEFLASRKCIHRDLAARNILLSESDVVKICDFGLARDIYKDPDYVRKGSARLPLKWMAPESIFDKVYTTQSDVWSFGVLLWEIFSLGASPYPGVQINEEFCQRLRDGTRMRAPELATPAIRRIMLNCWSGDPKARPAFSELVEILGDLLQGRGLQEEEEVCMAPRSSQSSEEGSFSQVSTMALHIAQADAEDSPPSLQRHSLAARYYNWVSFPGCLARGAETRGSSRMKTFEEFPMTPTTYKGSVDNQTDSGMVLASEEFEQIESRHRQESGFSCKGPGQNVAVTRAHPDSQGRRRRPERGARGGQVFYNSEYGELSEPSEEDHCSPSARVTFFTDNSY
T1 sequence (P17948 27-1338): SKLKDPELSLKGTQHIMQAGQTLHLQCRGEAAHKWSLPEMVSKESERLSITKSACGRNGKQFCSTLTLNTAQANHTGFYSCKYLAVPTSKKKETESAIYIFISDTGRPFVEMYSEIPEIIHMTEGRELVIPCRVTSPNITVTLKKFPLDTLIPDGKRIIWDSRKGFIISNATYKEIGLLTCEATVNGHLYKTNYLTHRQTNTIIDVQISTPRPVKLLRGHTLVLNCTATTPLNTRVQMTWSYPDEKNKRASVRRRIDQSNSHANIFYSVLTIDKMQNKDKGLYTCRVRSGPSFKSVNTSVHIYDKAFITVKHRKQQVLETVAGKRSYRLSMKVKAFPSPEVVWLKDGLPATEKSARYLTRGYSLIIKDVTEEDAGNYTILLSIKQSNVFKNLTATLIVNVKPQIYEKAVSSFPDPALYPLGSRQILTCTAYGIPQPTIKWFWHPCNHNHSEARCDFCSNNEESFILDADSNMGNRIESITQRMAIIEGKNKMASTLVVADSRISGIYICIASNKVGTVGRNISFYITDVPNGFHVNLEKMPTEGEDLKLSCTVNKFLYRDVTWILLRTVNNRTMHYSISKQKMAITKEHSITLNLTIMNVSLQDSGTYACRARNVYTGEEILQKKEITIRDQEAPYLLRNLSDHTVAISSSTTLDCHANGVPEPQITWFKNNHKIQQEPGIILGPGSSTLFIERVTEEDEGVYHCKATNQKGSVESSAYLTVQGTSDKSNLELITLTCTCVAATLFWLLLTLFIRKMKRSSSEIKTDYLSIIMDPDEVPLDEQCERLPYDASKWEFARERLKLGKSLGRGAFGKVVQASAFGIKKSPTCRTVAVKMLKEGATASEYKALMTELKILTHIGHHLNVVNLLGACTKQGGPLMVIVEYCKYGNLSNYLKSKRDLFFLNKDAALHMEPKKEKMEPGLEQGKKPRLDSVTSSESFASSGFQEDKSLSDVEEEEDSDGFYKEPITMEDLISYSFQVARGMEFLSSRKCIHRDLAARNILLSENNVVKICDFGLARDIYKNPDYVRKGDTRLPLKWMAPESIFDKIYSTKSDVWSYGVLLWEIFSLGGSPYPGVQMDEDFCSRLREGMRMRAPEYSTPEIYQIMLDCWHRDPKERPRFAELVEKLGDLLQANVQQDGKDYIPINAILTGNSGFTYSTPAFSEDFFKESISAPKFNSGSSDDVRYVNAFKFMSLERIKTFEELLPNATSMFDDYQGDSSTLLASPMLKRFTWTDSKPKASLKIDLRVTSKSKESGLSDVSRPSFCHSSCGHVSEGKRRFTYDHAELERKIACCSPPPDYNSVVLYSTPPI

IC50 (PKD1): 28 nM
IC50 (VEGFR2): 69 nM
Compound: CCn1c(=O)ccc2cnc(Nc3ccc(N4CCN(C)CC4)cc3)nc21 [VCC251801]
recombinant kinase assay (ProQinase) at single 1 μM concentration (VEGFR1): In this selectivity study, VCC251801 blocked both VEGFR1 and VEGFR3 activation
kinase selectivity study (SignalChem) at single 5 μM concentration (PKD2): it showed moderate inhibitory effect against the other PKD isoform, PKD2
recombinant kinase assay (ProQinase) at single 1 μM concentration (VEGFR3): In this selectivity study, VCC251801 blocked both VEGFR1 and VEGFR3 activation
